# Experimental data as given in patent publication US4994472A, “1-(pyridinylamino)-2-pyrrolidinones as pain relievers” (Hoechst-Roussel Pharmaceuticals Incorporated, priority 1989, dated 1991).
# Assays:
# [1] = test system: phenyl-para-quinone induced writhing; experiment: phenyl-para-quinone writhing assay in mice (analgesia); format: in vivo; conditions: 20 mg/kg s.c., expressed as % decrease in writhing
# Excerpt: Exptl. […] Presented in Table I is the analgesic effect of one of the compounds of the invention expressed as the % decrease in writhing at a given dose.
# [2] = test system: Scopolamine Induced Memory Deficit; experiment: Dark Avoidance Assay (reversal of scopolamine induced memory deficit); format: in vivo; conditions: mice, retest after 24 hours
# Experimental: In this assay, mice are tested for their ability to remember an unpleasant stimulus for a period of 24 hours. A mouse is placed in a chamber that contains a dark compartment; a strong incandescent light drives it to the dark compartment, where an electric shock is administered through metal plates on the floor. The animal is removed from the testing apparatus and tested again, 24 hours later, for the ability to remember the electric shock. If scopolamine, an anticholinergic that is known to cause memory impairment, is administered before an animal's initial exposure to the test chambers, the animal re-enters the dark compartment shortly after being placed in the test chamber 24 hours later. The effect of scopolamine is blocked by an active test compound, resulting in a greater interval before re-entry into the dark compartment. The results for an active compound are expressed as the percent of a group of animals in which the effect of scopolamine is blocked, as manifested by an increased interval between being placed in the test chamber and re-entering the dark compartment. The activity in the assay of some of the compounds of the invention are given below in Table 2.
smiles,measurement,setting,value
"O=C1CCCN1Nc1ccncc1 [1-(4-pyridinylamino)-2-pyrrolidinone, 1-(4-Pyridinylamino)-2-pyrrolidinone]",% Inhibition of Writhing,[1],-56%
CCCN(c1ccncc1)N1CCCC1=O.O=C(O)C(=O)O [1-(Propyl-4-pyridinylamino)-2-pyrrolidinone oxalate],% of Animals With Scopolamine Induced Memory Deficit Reversal,[2]; .3 mg/kg s.c.,33%
"Nc1c2c(nc3ccccc13)CCCC2 [Tacrine, reference compound]",% of Animals With Scopolamine Induced Memory Deficit Reversal,[2]; .63 (mg/kg of body wt) s.c.,13%
